Experimental data published in patent publication US20200338084A1, “INHIBITORS OF LOW MOLECULAR WEIGHT PROTEIN TYROSINE PHOSPHATASE (LMPTP) AND USES THEREOF” (Sanford Burnham Prebys Medical Discovery Institute, priority 2018, published 2020).

Molecular target: T1, human LMPTP-A (Homo sapiens, UniProt P24666)
T1 sequence (P24666 1-158): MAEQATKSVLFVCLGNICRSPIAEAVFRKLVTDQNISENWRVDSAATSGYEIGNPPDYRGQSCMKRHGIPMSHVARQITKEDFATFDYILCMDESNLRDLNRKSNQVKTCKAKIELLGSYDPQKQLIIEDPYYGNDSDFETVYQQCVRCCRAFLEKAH
Experiment: Enzyme Assay of Inhibition of LMPTP-A
Assay type: biochemical
Details: phosphatase assay, OMFP or pNPP substrate, 50 mM Bis-Tris pH 6.0, 37° C.
Procedure, shortened: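 Recombinant human LMPTP-A in 50 mM Bis-Tris pH 6.0, 1 mM DTT, 0.01% Triton X-100 at 37° C. Substrate OMFP read continuously by fluorescence (485/525 nm), or pNPP stopped with NaOH and read at 405 nm. IC50 taken from inhibitor concentration versus % activity plots.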

## O=S(=O)(Cc1cccc(F)c1)Nc1ncn(Cc2c(Cl)cccc2Cl)c2ncnc1-2 [{3-[(2,6-dichlorophenyl)methyl](3-hydropurin-6-yl)}{[(3-fluorophenyl)methyl]sulfonyl}amine]
  IC50: ≥ 20 µM
